System: blood glucose
Assay: Insulin delivery by aiptasia stinging capsule gel, blood glucose in nude mice
Format: in vivo
Conditions: topical aiptasia stinging capsule gel plus Humolin, blood glucose at 0, 30, 60 and 90 minutes after gel activation, FIG. 3
Procedure: The potential of the stinging capsule patch to deliver an agent (insulin) into the blood stream was tested with aiptasia capsules.
Materials—Commercial Insulin—Humolin of EliLilly was tested. Unless otherwise noted, all chemicals were purchased from Sigma (Aldrich).
Animals—6-9 week old nude mice each weighing 20-30 gr were used.
Insulin Delivery—Mice were topically applied with the aiptasia stinging capsule gel and Humolin. A few microlitres of blood were drawn from the tail tip prior to insulin application (time 0) and thirty minutes, sixty minutes and ninety minutes following gel activation. Blood glucose concentration was measured using a human glucometer.
In parallel, and as a positive control, mice were subcutaneously injected with Humolin.

Substance: insulin
- insulin delivery / blood glucose regulation compared with subcutaneous injection: in a similar manner as subcutaneous injection

From patent US8834862B2, “Methods, compositions and devices utilizing stinging cells/capsules for conditioning a tissue prior to delivery of an active agent” (NanoCyte Inc., priority 2005, dated 2014)
